Experimental data: patent publication US8614211B2, “Certain chemical entities, compositions, and methods” (NeuPharma, Inc., priority 2011, dated 2013)

tested on: A549 cells; experiment: Inhibition of cell growth in tumor cells, MTT assay; type: cell-based; conditions: Homo sapiens, A549, 72 h, read-out: A549 cell IC50
Method: Inhibition of cell growth by compounds was measured using MTT assay (Mosmann, T., Journal of Immunological Methods, 1983, 65, 55-63). Tumor cell lines were purchased from ATCC (American Type Culture Collection, Manassas, Va.). All cell lines were maintained in RPMI 1640 (Hyclone) supplemented with 10% fetal bovine serum (FBS, Hyclone), glutamine (2 mM, Hyclone), and antibiotics (penicillin 100 U/mL and streptomycin 50 μg/mL) at 37° C. in a humidified atmosphere of 5% CO2 in air. Taxol (positive control, Sigma) and compounds were dissolved in DMSO (Sigma), and the final concentration of DMSO in the medium was 1%. Tumor cells were plated in 96-well plates at densities from 4000 cells/well of a 96-well plate and allowed to adhere/grow for 24 h. They were then treated with various concentrations of drug for 72 h. 3-(4,5-Dimethylthiazol-2-yl)-2,5-diphenyltetrazolium bromide (MTT, Sigma) was used to determine the number of viable cells at the time of compound addition and the number of cells remaining after 72 h compound exposure. The number of cells remaining after 72 h was compared to the number of viable cells at the time of compound addition by measuring the absorbance at 570 nm, allowing for the calculation of growth inhibition.
All concentrations of compounds were tested in triplicate and controls were averaged over 4 wells. IC50 was calculated by plotting the concentration of compound vs the percentage of inhibition in treated wells using GraphPad Prism 5. […]

Compound | IC50 [nM]
COc1ccc(C[C@H]2COC(=O)[C@@H]2Cc2ccc(OC(=O)N(C)CCO)c(OC)c2)cc1OC [4-(((3R,4R)-4-(3,4-dimethoxybenzyl)-2-oxotetrahydrofuran-3-yl)methyl)-2-methoxyphenyl (2-hydroxyethyl)(methyl)carbamate] | 1070
COCCN1CCN(C(=O)Oc2ccc(C[C@H]3C(=O)OC[C@@H]3Cc3ccc(OC)c(OC)c3)cc2OC)CC1 [4-(((3R,4R)-4-(3,4-dimethoxybenzyl)-2-oxotetrahydrofuran-3-yl)methyl)-2-methoxyphenyl 4-(2-methoxyethyl)piperazine-1-carboxylate] | 788
COc1ccc(C[C@H]2COC(=O)[C@@H]2Cc2ccc(OC(=O)N3CCN(C)CC3)c(OC)c2)cc1OC [4-(((3R,4R)-4-(3,4-dimethoxybenzyl)-2-oxotetrahydrofuran-3-yl)methyl)-2-methoxyphenyl 4-methylpiperazine-1-carboxylate] | 850
COc1ccc(C[C@H]2COC(=O)[C@@H]2Cc2ccc(OC(=O)N(C)C)c(OC)c2)cc1OC [4-(((3R,4R)-4-(3,4-dimethoxybenzyl)-2-oxotetrahydrofuran-3-yl)methyl)-2-methoxyphenyl dimethylcarbamate] | 521
COc1ccc(C[C@H]2COC(=O)[C@@H]2Cc2ccc(OC(=O)N3CCNCC3)c(OC)c2)cc1OC [4-(((3R,4R)-4-(3,4-dimethoxybenzyl)-2-oxotetrahydrofuran-3-yl)methyl)-2-methoxyphenyl piperazine-1-carboxylate] | 799
COCCN(C)C(=O)Oc1ccc(C[C@H]2C(=O)OC[C@@H]2Cc2ccc(OC)c(OC)c2)cc1OC [4-(((3R,4R)-4-(3,4-dimethoxybenzyl)-2-oxotetrahydrofuran-3-yl)methyl)-2-methoxyphenyl (2-methoxyethyl)(methyl)carbamate] | 687
COc1ccc(C[C@H]2COC(=O)[C@@H]2Cc2ccc(OC(=O)N3CC[C@H](N)C3)c(OC)c2)cc1OC [(S)-4-(((3R,4R)-4-(3,4-dimethoxybenzyl)-2-oxotetrahydrofuran-3-yl)methyl)-2-methoxyphenyl 3-aminopyrrolidine-1-carboxylate] | 923
COc1ccc(C[C@H]2COC(=O)[C@@H]2Cc2ccc(OC(=O)N(C)CCN(C)C)c(OC)c2)cc1OC [4-(((3R,4R)-4-(3,4-dimethoxybenzyl)-2-oxotetrahydrofuran-3-yl)methyl)-2-methoxyphenyl (2-(dimethylamino)ethyl)(methyl)carbamate] | 1020

same assay, conditions: Homo sapiens; MTT assay, 72 h compound exposure, A549 cells; read-out: A549 cell IC50

Compound | IC50 [nM]
COc1ccc(C[C@H]2COC(=O)[C@@H]2Cc2ccc(OC(=O)N3CC[C@@H](NC(=O)OC(C)(C)C)C3)c(OC)c2)cc1OC [(R)-4-(((3R,4R)-4-(3,4-dimethoxybenzyl)-2-oxotetrahydrofuran-3-yl)methyl)-2-methoxyphenyl 3-((tert-butoxycarbonyl)amino) pyrrolidine-1-carboxylate] | 585
COc1ccc(C[C@H]2COC(=O)[C@@H]2Cc2ccc(OC(=O)N3CCOCC3)c(OC)c2)cc1OC [4-(((3R,4R)-4-(3,4-dimethoxybenzyl)-2-oxotetrahydrofuran-3-yl)methyl)-2-methoxyphenyl morpholine-4-carboxylate] | 767
COc1ccc(C[C@H]2COC(=O)[C@@H]2Cc2ccc(OC(=O)N3CC[C@@H](O)C3)c(OC)c2)cc1OC [(R)-4-(((3R,4R)-4-(3,4-dimethoxybenzyl)-2-oxotetrahydrofuran-3-yl)methyl)-2-methoxyphenyl 3-hydroxypyrrolidine-1-carboxylate] | 587
COc1ccc(C[C@H]2COC(=O)[C@@H]2Cc2ccc(OC(=O)N3CCCC3)c(OC)c2)cc1OC [4-(((3R,4R)-4-(3,4-dimethoxybenzyl)-2-oxotetrahydrofuran-3-yl)methyl)-2-methoxyphenyl pyrrolidine-1-carboxylate] | 785
COc1ccc(C[C@H]2COC(=O)[C@@H]2Cc2ccc(OC(=O)N3CC[C@H](O)C3)c(OC)c2)cc1OC [(S)-4-(((3R,4R)-4-(3,4-dimethoxybenzyl)-2-oxotetrahydrofuran-3-yl)methyl)-2-methoxyphenyl 3-hydroxypyrrolidine-1-carboxylate] | 841
COc1ccc(C[C@H]2COC(=O)[C@@H]2Cc2ccc(OC(=O)N3CCCCC3)c(OC)c2)cc1OC [4-(((3R,4R)-4-(3,4-dimethoxybenzyl)-2-oxotetrahydrofuran-3-yl)methyl)-2-methoxyphenyl piperidine-1-carboxylate] | 659
